Experimental data reported in patent US4981950A, “Vasoconstrictor peptide” (Takeda Chemical Ind., Ltd., priority 1987, dated 1991).

Key:
[1] = system: porcine right coronary artery; test: Assay of vascular smooth muscle constrictor activity (isometric tension of intima-denuded artery spiral specimens); conditions: assay (1); purified compound I from porcine aortic endothelial cell culture supernatant; Krebs-Ringer solution, 37° C.
Description: Porcine right coronary artery spiral specimens (2×20 mm) with the intima denuded by rubbing with a small swab are suspended in 3 ml of Krebs-Ringer solution maintained at 37° C. and saturated with the mixed gas containing 5% carbon dioxide and 95% oxygen by volume. After setting the basal tension to 1 g, the isometric tension is measured with tension transducers.
(§1) The activity of the compound I obtained in 2 (iii) above was assayed by the method of Reference Example (1) and (2).

guinea pig right atrium = test: Assay of cardiotonic action (tension and heart rate of suspended right atrium specimens); conditions: assay (2); purified compound I from porcine aortic endothelial cell culture supernatant
Description: Instead of the porcine right coronary artery spiral specimens used in the assay described in the above item (1), guinea pig right atrium suspended specimens are used, and the tension and the heart rate per minute are measured according to the same procedure as described in (1). (3) ED50
as §1

CC[C@H](C)[C@H](NC(=O)[C@H](CC(=O)O)NC(=O)[C@H](CC(C)C)NC(=O)[C@H](Cc1c[nH]cn1)NC(=O)[C@@H]1CSSC[C@H](N)C(=O)N[C@@H](CO)C(=O)N[C@H]2CSSC[C@H](NC(=O)[C@H](CCC(=O)O)NC(=O)[C@H](CCCCN)NC(=O)[C@H](CC(=O)O)NC(=O)[C@H](CCSC)NC(=O)[C@H](CC(C)C)NC(=O)[C@H](CO)NC(=O)[C@H](CO)NC2=O)C(=O)N[C@@H](C(C)C)C(=O)N[C@@H](Cc2ccc(O)cc2)C(=O)N[C@@H](Cc2ccccc2)C(=O)N1)C(=O)N[C@H](C(=O)N[C@@H](Cc1c[nH]c2ccccc12)C(=O)O)[C@@H](C)CC [compound I]
ED50 for smooth muscle constrictor activity to porcine coronary artery [1]: 4 to 5×10^-10 mole/l
ED50 for cardiotonic action to guinea pig right atrium (guinea pig right atrium): 1 nM
